14 compounds from patent US9540352B2, “Substituted 1,7-naphthyridines as dopamine D1 ligands” (PFIZER INC., priority 2014, dated 2017) can be followed below.

Sequence of Human D1 Receptor (P21728 whole entry): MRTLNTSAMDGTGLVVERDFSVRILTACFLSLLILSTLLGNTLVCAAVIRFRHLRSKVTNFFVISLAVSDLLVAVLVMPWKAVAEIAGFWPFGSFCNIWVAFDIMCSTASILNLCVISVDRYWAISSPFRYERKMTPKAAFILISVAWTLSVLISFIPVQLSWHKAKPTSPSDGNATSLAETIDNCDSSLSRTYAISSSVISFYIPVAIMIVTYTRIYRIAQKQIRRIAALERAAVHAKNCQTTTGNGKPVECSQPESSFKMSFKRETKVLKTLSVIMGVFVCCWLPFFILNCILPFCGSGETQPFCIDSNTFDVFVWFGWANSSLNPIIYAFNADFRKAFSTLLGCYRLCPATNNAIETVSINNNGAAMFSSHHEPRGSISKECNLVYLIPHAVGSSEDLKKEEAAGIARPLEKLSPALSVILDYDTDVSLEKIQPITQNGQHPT

The test deals with Human D1 Receptor (Homo sapiens (Human), UniProt P21728). The test is described as follows: Human D1 receptor binding assay ([3H]-SCH23390 competition). Particulars: over-expressing LTK human cell lines; 0.5 nM [3H]-SCH23390; 30 min at 37 °C; footnote a: geometric mean of ≥5 determinations; footnote b: single determination; read-out: Human D1 Receptor Binding, Ki (nM); Geometric mean of 2-4 determinations (unless otherwise indicated). How it is done:
The affinity of the compounds described herein was determined by competition binding assays similar to those described in Ryman-Rasmussen et al., “Differential activation of adenylate cyclase and receptor internalization by novel dopamine D1 receptor agonists”, Molecular Pharmacology 68(4):1039-1048 (2005).
D1 binding assays were performed using over-expressing LTK human cell lines. […] These ligand and tissue concentrations were used in time course studies to determine linearity and equilibrium conditions for binding. Binding was at equilibrium with the specified amount of tissue in 30 minutes at 37° C. […] The pellet was resuspended in assay buffer [50 mM Tris (pH 7.4@ RT) containing 4 mM MgSO4 and 0.5 mM EDTA]. […] Non-specific binding was determined by radioligand binding in the presence of a saturating concentration of (+)-Butaclamol (10 μM), a D1 antagonist. After a 30 minute incubation period at 37° C., assay samples were rapidly filtered through Unifilter-96 GF/B PEI-coated filter plates and rinsed with 50 mM Tris buffer (pH 7.4 at 4° C.). […] The IC50 value (concentration at which 50% inhibition of specific binding occurs) was calculated by linear regression of the concentration-response data in Microsoft Excel. Ki values were calculated according to the Cheng-Prusoff equation: […]
For `Cc1cc(Oc2nccc3cccnc23)ccc1-c1c(C)n[nH]c(=O)c1C` (single isomer, unassigned) [Example 2, (+)-4,6-Dimethyl-5-[2-methyl-4-(1,7-naphthyridin-8-yloxy)phenyl]pyridazin-3(2H)-one], the Ki (as a rule, a measure of affinity in units of concentration, obtained from inhibition or displacement) is 115 nM. As for `Cc1cc(Oc2nccc3cccnc23)ccc1-c1c(C)n[nH]c(=O)c1C` (single isomer, unassigned) [Example 3, (−)-4,6-Dimethyl-5-[2-methyl-4-(1,7-naphthyridin-8-yloxy)phenyl]pyridazin-3(2H)-one], the figure is 102 nM; as for `Cc1cc(Oc2nccc3cccnc23)ccc1-c1c(C)c(=O)[nH]c(=O)n1C` [Example 1, 1,5-Dimethyl-6-[2-methyl-4-(1,7-naphthyridin-8-yloxy)phenyl]pyrimidine-2,4(1H,3H)-dione], 28.5 nM. As for `Cc1n[nH]c(=O)c(C)c1-c1ccc(Oc2nccc3cccnc23)cc1` [Example 4, 4,6-Dimethyl-5-[4-(1,7-naphthyridin-8-yloxy)phenyl]pyridazin-3(2H)-one], the Ki came to 205 nM.

`Cc1cc(Oc2nccc3ccccc23)ccc1-c1c(C)c(=O)[nH]c(=O)n1C` [Example 5, 6-[4-(Isoquinolin-1-yloxy)-2-methylphenyl]-1,5-dimethylpyrimidine-2,4(1H,3H)-dione]: the Ki turned out to be 1.9 nM. `Cc1cc(Oc2nccc3cccnc23)ccc1-c1c(C)ncnc1C` [Example 6, 8-[4-(4,6-dimethylpyrimidin-5-yl)-3-methylphenoxy]-1,7-naphthyridine]: the Ki is 105 nM. For `Cc1c(-c2ccc(Oc3nccc4cccnc34)cc2)n(C)c(=O)[nH]c1=O` [Example 7, 1,5-dimethyl-6-[4-(1,7-naphthyridin-8-yloxy)phenyl]pyrimidine-2,4(1H,3H)-dione], the Ki is 119 nM.

In the case of `Cc1cc(Oc2nccc3ccncc23)ccc1-c1c(C)n[nH]c(=O)c1C` [Example 8, 4,6-dimethyl-5-[2-methyl-4-(2,7-naphthyridin-1-yloxy)phenyl]pyridazin-3(2H)-one], the Ki is 141 nM. Turning to `Cc1cc(Oc2nccc3nccnc23)ccc1-c1c(C)n[nH]c(=O)c1C` [Example 9, 4,6-dimethyl-5-[2-methyl-4-(pyrido[3,4-b]pyrazin-5-yloxy)phenyl]pyridazin-3(2H)-one], the Ki is 306 nM. As for `Cc1cc(Oc2nccc3ncccc23)ccc1-c1c(C)n[nH]c(=O)c1C` [Example 10, 4,6-dimethyl-5-[2-methyl-4-(1,6-naphthyridin-5-yloxy)phenyl]pyridazin-3(2H)-one], the figure is 124 nM; as for `Cc1cc(Oc2nccc3ccccc23)ccc1-c1c(C)n[nH]c(=O)c1C` [Example 11, 5-[4-(isoquinolin-1-yloxy)-2-methylphenyl]-4,6-dimethylpyridazin-3(2H)-one], 7.8 nM; as for `COc1ccc2ccnc(Oc3ccc(-c4c(C)n[nH]c(=O)c4C)c(C)c3)c2c1` [Example 12, 5-{4-[(7-methoxyisoquinolin-1-yl)oxy]-2-methylphenyl}-4,6-dimethylpyridazin-3(2H)-one], 186 nM.

As for `Cc1cc(Oc2nccc3ccc(C#N)cc23)ccc1-c1c(C)n[nH]c(=O)c1C` [Example 13, 1-[4-(3,5-dimethyl-6-oxo-1,6-dihydropyridazin-4-yl)-3-methylphenoxy]isoquinoline-7-carbonitrile], the Ki turned out to be 334 nM.

On to `Cc1cc(Oc2nccc3cccc(C#N)c23)ccc1-c1c(C)n[nH]c(=O)c1C` [Example 14, 1-[4-(3,5-dimethyl-6-oxo-1,6-dihydropyridazin-4-yl)-3-methylphenoxy]isoquinoline-8-carbonitrile], for which the Ki came to 261 nM.
